Assay results published in patent US20140314857A1, “FORMULATIONS FOR ENHANCED BIOAVAILABILITY OF ZANAMIVIR” (priority 2012, published 2014).

Columns and labels:
[1] = Intraduodenal bioavailability of zanamivir from glycerol and PBS formulations, enhancer pre-dose (Example 6); settings: male, Sprague-Dawley, rat, in vivo, ID 1.5 mg/animal; for concentration at 0.25 hr / concentration at 0.5 hr / concentration at 0.83 hr / concentration at 1 hr / concentration at 1.5 hr / concentration at 2 hr: 1.5 mg/animal, Plasma concentration
Excerpt: Male Sprague-Dawley rats (Hilltop Labs), 3 animals per treatment group, 250-350 grams in weight, were fitted with a jugular vein cannula (JVC). Animals intended for intraduodenal dosing were also fitted with one or more intraduodenal cannula (IDC) and those intended for intravenous dosing were fitted with a second JVC. Food was withheld from the animals for a minimum of twelve hours prior to test article administration and was returned approximately four hours post-dose. Water was supplied ad libitum.
Intraduodenal doses composed of 1.5 mg of zanamivir and varying amounts of an enhancer (glycerol or Capmul MCM L8) were injected directly into the duodenum via the IDC. Intravenous dosing was conducted by the injection of 1.5 mg of zanamivir in 200 μL of PBS through a JVC. For some experiments, the absorption enhancer was administered intraduodenally 2 hr prior to administering 1.5 mg of zanamivir in PBS through a second IDC. Each intraduodenal dose was followed with the introduction of a small air bubble (˜10 μL) in the cannula followed by a flush of 125 μL of PBS to ensure the dose was given in full. The volume of PBS used for cannula flush was consistent across the treatment groups. The cannula was tied to prevent the PBS remaining in the cannula from entering the duodenum.
Blood samples collected via the JVC, approximately 400 μL each, were obtained at 2 min, 5 min, 15 min, 30 min, 60 min, 90 min, and 120 min, with sodium heparin used as an anti-coagulant. Each sample was placed into a chilled tube containing the anticoagulant and kept on ice until centrifugation at 4° C., 3,000×g, for 5 min. The plasma supernatants were stored at −70° C. until LC-MS analysis.
Dosing solution samples were assayed by LC-MS/MS using electrospray ionization. The chromatographic system consisted of Perkin Elmer series 200 micropumps and autosampler equipped with a Waters Atlantic® HILIC Silica 3 μM, 2.1×50 mm column. The mass spectrometer was a PE Sciex API 4000 with electrospray interface in multiple reaction monitoring mode. […] Stock solutions (1 mg/mL zanamivir) were prepared in water. Standards (eight concentrations) were prepared in the appropriate matched matrix (HBSSg or Sprague-Dawley rat plasma containing sodium heparin) and diluted 50-fold with methanol. Experimental samples were treated identically.
Standards and samples were prepared in Sprague Dawley rat plasma containing sodium heparin as an anticoagulant. An eight-point calibration curve was prepared at concentrations of 1000, 750, 500, 250, 100, 50, 25, and 10 ng/mL by serial dilution. Standard samples were treated identically to the study samples.
Plasma samples were extracted by protein precipitation in methanol.
In this example, the bioavailability of Zanamivir was evaluated after intraduodenal doses in male Sprague-Dawley rats. The test compound was dosed at 1.5 mg/animal through intraduodenal routes from glycerol and PBS formulations. Plasma levels were determined by LC-MS/MS analysis. Pharmacokinetic parameters were estimated by a non-compartmental model using WinNonlin v5.2.1 software.

Caco-2 cell monolayers = experiment: Unidirectional (A-to-B) permeability of zanamivir across Caco-2 cell monolayers with and without excipients; type: in vitro ADME; settings: vs no enhancer
Experimental: Caco-2 cells were obtained from American Type Culture Collection (Rockville, Md.). Stock cultures were maintained in flasks with DMEM medium supplemented with 10% FBS, 1% non-essential amino acids, 1 mmol/L sodium pyruvate, 100 IU/mL penicillin, and 100 μg/mL streptomycin in a humidified incubator (37° C., 5% CO2). Cells were harvested by trypsinization and seeded at 60,000 cells/cm^2 onto Costar Transwell® 12-well dual-chamber plates with collagen-coated, microporous polycarbonate membranes (1.13 cm^2 insert area, 0.4 μm pore size; Corning Life Sciences, Acton, Mass.) for permeability studies. The culture medium was changed three times per week. […]
Unidirectional (A-to-B) permeability of zanamivir was determined at 15 μg/mL in the absence and presence of varying concentrations of excipients in Caco-2 cell monolayers. […]
Assays were conducted by seeding approximately 68,000 viable Caco-2 cells in 1.12 cm^2 Costar Transwell inserts (12-well format, 0.4 micron pore size PET membranes) in Dulbecco's Modified Eagles Medium (high glucose) supplemented with 20% fetal bovine serum, glutamine, pyruvate, non-essential amino acids, epidermal growth factor, ITS (insulin, transferrin, selenium), and penicillin/streptomycin. […] Transepithelial electrical resistance (TEER) readings were conducted to test the quality of the cell monolayer on the Transwell membrane. […]

[2] = 50 µL PBS, 50 µL blank Capmul MCM L8 -2 hr, individual rats
[3] = 50 µL PBS, 50 µL blank Capmul MCM L8 -2 hr, mean
[4] = 50 µL PBS, 150 µL blank glycerol -2 hr, mean
[5] = 50 µL PBS, 150 µL blank glycerol -2 hr, individual rats
[6] = 100 µL Glycerol, individual rats
[7] = 150 µL Glycerol, individual rats

In the case of `CC(=O)NC1C(NC(=N)N)C=C(C(=O)O)OC1C(O)C(O)CO` (stereo not shown) [Zanamivir, 5-acetamido-4-guanidino-6-(1,2,3-trihydroxypropyl)-5,6-dihydro-4H-pyran-2-carboxylic acid], the Tmax ([1]; 1.5 mg, tmax, 100 µL Glycerol, mean) is reported as 43.2 min, the concentration at 0.25 hr [1, 2] is reported as 33.3 ng/mL and the concentration at 0.25 hr [1, 3] is reported as 29.5 ng/mL. The concentration at 0.5 hr [1, 2] was 38 ng/mL, the concentration at 0.5 hr [1, 3] was 38.5 ng/mL and the concentration at 0.83 hr [1, 3] was 10.8 ng/mL. The concentration at 1 hr [1, 2] was 33 ng/mL, the concentration at 1 hr [1, 3] was 32.7 ng/mL and the concentration at 1.5 hr [1, 3] was 38.7 ng/mL. It also gave a concentration at 2 hr [1, 3] of 33.8 ng/mL, a concentration at 0.25 hr [1, 4] of 51.8 ng/mL and a concentration at 0.5 hr [1, 5] of 50.2 ng/mL. It also gave a concentration at 0.5 hr [1, 4] of 54.2 ng/mL, a concentration at 0.83 hr [1, 4] of 24.4 ng/mL and a concentration at 1 hr [1, 5] of 36.4 ng/mL. For the same molecule, the concentration at 1 hr [1, 4] was 38.2 ng/mL, the concentration at 1.5 hr [1, 5] was 40.1 ng/mL and the concentration at 1.5 hr [1, 4] was 40.1 ng/mL. The concentration at 2 hr ([1]; 50 µL PBS, 150 µL blank glycerol -2 hr, individual rats, BLOQ = below 10 ng/mL) was 53.4 ng/mL, the concentration at 2 hr [1, 4] was 54.1 ng/mL and the concentration at 0.25 hr [1, 6] was 52 ng/mL. It also gave a concentration at 0.25 hr ([1]; 100 µL Glycerol, mean) of 56.4 ng/mL, a concentration at 0.5 hr [1, 6] of 51.4 ng/mL and a concentration at 0.5 hr ([1]; 100 µL Glycerol, mean) of 48.7 ng/mL. It also gave a concentration at 0.83 hr ([1]; 100 µL Glycerol, mean) of 57.1 ng/mL, a concentration at 1 hr [1, 6] of 38.5 ng/mL and a concentration at 1 hr ([1]; 100 µL Glycerol, mean) of 44.4 ng/mL. For the same molecule, the concentration at 1.5 hr ([1]; 100 µL Glycerol, mean) was 46.9 ng/mL, the concentration at 2 hr ([1]; 100 µL Glycerol, mean) was 54.2 ng/mL and the concentration at 0.25 hr [1, 7] was 109 ng/mL. The concentration at 0.25 hr ([1]; 150 µL Glycerol, mean) was 87.7 ng/mL, the concentration at 0.5 hr ([1]; 150 µL Glycerol, mean) was 69.2 ng/mL and the concentration at 0.83 hr [1, 7] was 139 ng/mL. For the same molecule, the concentration at 0.83 hr ([1]; 150 µL Glycerol, mean) was 107 ng/mL, the concentration at 1 hr [1, 7] was 52.5 ng/mL and the concentration at 1 hr ([1]; 150 µL Glycerol, mean) was 49.9 ng/mL. The concentration at 1.5 hr ([1]; 150 µL Glycerol, mean) was 36.6 ng/mL, the concentration at 2 hr ([1]; 150 µL Glycerol, mean) was 29.3 ng/mL and the “increase in apparent permeability coefficient (Papp)” value (Caco-2 cell monolayers; optimized concentration of Capmul MCM L8 (0.25%)) was over 5 fold. For the same molecule, the “increase in apparent permeability coefficient (Papp)” value (Caco-2 cell monolayers; optimized concentration of glycerol (5%)) was over 5 fold.
